PMC11239005, “Preclinical studies of RA475, a guanidine-substituted spirocyclic candidate RPN13/ADRM1 inhibitor for treatment of ovarian cancer” (PLOS ONE, 2024)

Tests used:
[1] = 1 h; Up284 not in this paper's method, no reference at the place; cited from earlier work
RPN13 = biological target: T1, RPN13 (Homo sapiens, UniProt Q16186); assay: Up284B competition labelling in ES2 and SKOV3 cell lysate; type: binding; conditions: titrated RA475, bortezomib 1 μM, Up284B 5 μM
T1 construct: performed the labeling assay after treating ovarian cancer cell lysates (ES2 and SKOV3) in the presence of titrated doses of RA475; endogenous in cells; host or cells: ES2 and SKOV3 ovarian cancer cell lysates
Method: Clarified cell lysate in MPER buffer (Pierce) was pretreated with streptavidin-coated magnetic beads for 45 min at 4°C to deplete non-specific biotinylated proteins in the cell lysate. […] Next, the samples were mixed with Laemmli sample buffer (BioRad) and boiled for 5 min. The proteins were separated using a 4–15% Bio-Rad Mini-PROTEAN SDS-PAGE gel (1 h at 100 V), and transferred to PVDF membrane overnight at 4°C (24 V). The membrane was blocked with 5% (w/v) BSA in phosphate buffered saline containing 0.1% (v/v) Tween 20 (PBST) for 1 h at RT, and washed for 20 min (3X with PBST). Then the membrane was probed with HRP-streptavidin (1:10,000 in PBST) for 1 h at RT, washed for 30 min (3X with PBST), and developed using HyGLO chemiluminescent detection reagent (Denville) and visualized using a Biorad Chemidoc imager.
Fig 2 RA475 binds to RPN13 and induces rapid apoptosis. […] C, D) RA475 competition labelling experiment. C) ES2 D) SKOV3 clarified cell lysate (40 μg/sample) in MPER buffer was pretreated with streptavidin-coated magnetic beads for 45 min at 4°C to deplete non-specific biotinylated proteins in the cell lysate. […] Next, the samples were mixed with Laemmli sample buffer (BioRad) and boiled for 5 min. The proteins were separated using a 4–15% Bio-Rad Mini-PROTEAN SDS-PAGE gel (1 h at 100 V), and transferred to PVDF membrane overnight at 4°C (24 V). […]

[2] = Human plasma protein binding, equilibrium dialysis; type: in vitro ADME; conditions: pH 7.4, dialysis 5 h
Method: The assay was performed in a multiple-use 96-well dialysis unit (HTD96b dialyzer). Each individual well unit consisted of 2 chambers separated by a vertically aligned dialysis membrane of predetermined pore size (MWCO 12–14 kDa). 120 μL of non-diluted plasma spiked with the compound (1 μM, final DMSO concentration 1%) was added to one chamber, and the same volume of PBS buffer pH 7.4 to the other chamber. The HTD96b dialyzer was covered with adhesive sealing film and incubated 5 h at 37°C while shaking at 100 rpm. For sample preparation, an aliquot of the contents of each chamber was mixed with the same volume of the blank opposite matrix. In order to define non-specific loss of the compound during this assay, a standard solution was created by mixing an aliquot of spiked plasma with blank buffer without dialysis. Two aliquots of the standard solution were incubated at 37°C, shaking at 100 rpm for 5 h (recovery samples). The other two aliquots were immediately diluted with acetonitrile and stored at 4°C until analysis (stability samples). All samples were diluted 5-fold with internal standard diluted in 100% methanol with subsequent plasma proteins sedimentation by centrifuging at 6000 rpm for 5 minutes. Supernatants were analyzed using LC-MS/MS. The percentage of plasma protein bound compound, recovery and stability were calculated using following equations. […]

T1 sequence (Q16186 whole entry): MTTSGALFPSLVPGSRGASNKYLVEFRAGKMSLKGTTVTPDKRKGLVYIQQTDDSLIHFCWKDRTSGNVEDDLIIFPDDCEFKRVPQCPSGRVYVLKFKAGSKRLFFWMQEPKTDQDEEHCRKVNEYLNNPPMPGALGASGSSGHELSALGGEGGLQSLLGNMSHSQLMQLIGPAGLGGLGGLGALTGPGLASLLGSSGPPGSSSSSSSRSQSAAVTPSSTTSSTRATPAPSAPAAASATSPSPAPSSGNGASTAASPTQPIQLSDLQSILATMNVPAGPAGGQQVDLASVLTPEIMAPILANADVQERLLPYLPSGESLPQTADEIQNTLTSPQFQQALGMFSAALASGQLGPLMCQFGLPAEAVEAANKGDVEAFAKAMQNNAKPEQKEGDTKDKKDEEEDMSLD

| SMILES | present after 1 h in liver microsomes [1] | competition with Up284B for binding to RPN13 (RPN13) | fraction unbound at 5 h, 1 μM [2] |
| --- | --- | --- | --- |
| N#Cc1ccc(/C=C2/C(=O)/C(=C/c3ccc(C#N)cc3)C23CCNCC3)cc1 [Up284, reference compound] | 52% | – | – |
| Cl.Cl.N#Cc1ccc(/C=C2/C(=O)/C(=C/c3ccc(C#N)cc3)C23CCN(C(=N)N)CC3)cc1 [RA475, 1,3-bis((E)-4-cyanobenzylidene)-2-oxo-7-azaspiro[3.5]nonane-7-carboximidamide dihydrochloride] | – | efficiently competes | 0.009 |
